Results published in patent US9273058B2 (BRISTOL-MYERS SQUIBB COMPANY, priority 2013, dated 2016).

The compounds below were run against CK1δ (Homo sapiens, UniProt P48730) (assay: CK1δ kinase assay (Caliper LabChip electrophoretic separation of fluoresceinated peptide substrate and product)). Conditions: 200 pM CK1δ, 50 μM ATP, 1.5 μM peptide, 22 hours at room temperature; read-out: CK1δ IC50 range.
Format: biochemical
Method: CK1ε and CK1δ Kinase Assays
The kinase assay was performed in V-bottom 384-well plates. […] The reaction was incubated at room temperature for 22 hours and terminated by adding 45 μl of 35 mM EDTA to each sample. The reaction mixture was analyzed on the Caliper LABCHIP®3000 (Caliper, Hopkinton, Mass.) by electrophoretic separation of the unphosphorylated substrate and phosphorylated product. […] Compounds were dissolved at 10 mM in dimethylsulfoxide (DMSO) and evaluated at eleven concentrations. IC50 values were derived by non-linear regression analysis.

Chain of CK1δ (P48730 whole entry): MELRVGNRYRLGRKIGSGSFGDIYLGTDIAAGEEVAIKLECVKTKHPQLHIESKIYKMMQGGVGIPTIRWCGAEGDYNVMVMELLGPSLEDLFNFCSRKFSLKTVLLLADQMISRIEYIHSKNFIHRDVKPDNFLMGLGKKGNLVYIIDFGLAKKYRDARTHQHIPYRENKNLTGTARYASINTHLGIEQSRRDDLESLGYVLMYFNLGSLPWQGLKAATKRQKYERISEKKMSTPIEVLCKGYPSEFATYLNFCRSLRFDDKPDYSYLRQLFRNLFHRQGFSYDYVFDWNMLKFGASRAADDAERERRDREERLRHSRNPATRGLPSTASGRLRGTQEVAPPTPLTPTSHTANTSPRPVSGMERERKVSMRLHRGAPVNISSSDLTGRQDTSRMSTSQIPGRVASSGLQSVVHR

IC50 | Compound
10 to 100 nM | 2-(3-Chloro-4-fluorophenyl)-N^5-(3,3-difluorocyclobutyl)-7-isopropyl-6,7-dihydropyrazolo[1,5-a]pyrazine-3,5(4H)-dicarboxamide [Compound A123]
0.01 to 10 nM | NC(=O)c1c(-c2ccc(F)c(Cl)c2)nn2c1CN(C(=O)NC1CC(C(F)F)C1)CC2 (single isomer, unassigned) [Compound 252, 2-(3-Chloro-4-fluorophenyl)-N^5-(3-(difluoromethyl)cyclobutyl)-6,7-dihydropyrazolo[1,5-a]pyrazine-3,5(4H)-dicarboxamide]
0.01 to 10 nM | NC(=O)c1c(-c2ccc(F)c(Cl)c2)nn2c1CN(C(=O)NC1CC(C(F)F)C1)CC2 (single isomer, unassigned) [Compound 253, 2-(3-Chloro-4-fluorophenyl)-N^5-(3-(difluoromethyl)cyclobutyl)-6,7-dihydropyrazolo[1,5-a]pyrazine-3,5(4H)-dicarboxamide]
0.01 to 10 nM | CC(C)(C)NC(=O)N1Cc2c(C(N)=O)c(-c3ccc(F)c(Cl)c3)nn2C(CCO)C1 (single isomer, unassigned) [Compound A97, N^5-(tert-Butyl)-2-(3-chloro-4-fluorophenyl)-7-(2-hydroxyethyl)-6,7-dihydropyrazolo[1,5-a]pyrazine-3,5(4H)-dicarboxamide]
0.01 to 10 nM | CC(C)(C)NC(=O)N1Cc2c(C(N)=O)c(-c3ccc(F)c(Cl)c3)nn2C(C(F)(F)F)C1 (single isomer, unassigned) [Compound A128, N^5-(tert-Butyl)-2-(3-chloro-4-fluorophenyl)-7-(trifluoromethyl)-6,7-dihydropyrazolo[1,5-a]pyrazine-3,5(4H)-dicarboxamide]
10 to 100 nM | Cc1cc(C)cc(-c2nn3c(c2C(N)=O)CN(C(=O)NC(C)(C)C)CC3)c1 [Compound 128, N^5-(tert-Butyl)-2-(3,5-dimethylphenyl)-6,7-dihydropyrazolo[1,5-a] pyrazine-3,5(4H)-dicarboxamide]
0.01 to 10 nM | CC(F)(F)C(C)(C)NC(=O)N1CCn2nc(-c3cccc(Cl)c3)c(C(N)=O)c2C1 [Compound 174, 2-(3-Chlorophenyl)-N^5-(3,3-difluoro-2-methylbutan-2-yl)-6,7-dihydropyrazolo[1,5-a] pyrazine-3,5(4H)-dicarboxamide]
0.01 to 10 nM | CO[C@H]1C[C@@H](NC(=O)N2CCn3nc(-c4ccc(F)c(Cl)c4)c(C(N)=O)c3C2)C1 [Compound 191, 2-(3-Chloro-4-fluorophenyl)-N^5-((1s,3s)-3-methoxycyclobutyl)-6,7-dihydropyrazolo[1,5-a] pyrazine-3,5(4H)-dicarboxamide]
0.01 to 10 nM | CO[C@H]1C[C@H](NC(=O)N2CCn3nc(-c4ccc(F)c(Cl)c4)c(C(N)=O)c3C2)C1 [Compound 192, 2-(3-Chloro-4-fluorophenyl)-N^5-((1r,3r)-3-methoxycyclobutyl)-6,7-dihydropyrazolo[1,5-a] pyrazine-3,5(4H)-dicarboxamide]
0.01 to 10 nM | NC(=O)c1c(-c2ccc(F)c(Cl)c2)nn2c1CN(C(=O)NCC1CCC(F)(F)CC1)CC2 [Compound 194, 2-(3-Chloro-4-fluorophenyl)-N^5-((4,4-difluorocyclohexyl)methyl)-6,7-dihydropyrazolo[1,5-a] pyrazine-3,5(4H)-dicarboxamide]
0.01 to 10 nM | NC(=O)c1c(-c2ccc(F)c(Cl)c2)nn2c1CN(C(=O)N[C@@H]1C[C@@H]3[C@H](C1)C3(F)F)CC2 [Compound 197, 2-(3-Chloro-4-fluorophenyl)-N^5-((1R,3s,5S)-6,6-difluorobicyclo[3.1.0]hexan-3-yl)-6,7-dihydropyrazolo[1,5-a] pyrazine-3,5(4H)-dicarboxamide]
0.01 to 10 nM | NC(=O)c1c(-c2ccc(F)c(Cl)c2)nn2c1CN(C(=O)N[C@H]1C[C@@H]3[C@H](C1)C3(F)F)CC2 [Compound 198]
0.01 to 10 nM | CC(F)(F)C(C)(C)NC(=O)N1CCn2nc(-c3ccc(Cl)c(Cl)c3)c(C(N)=O)c2C1 [Compound 201, 2-(3,4-Dichlorophenyl)-N^5-(3,3-difluoro-2-methylbutan-2-yl)-6,7-dihydropyrazolo[1,5-a] pyrazine-3,5(4H)-dicarboxamide]
0.01 to 10 nM | NC(=O)c1c(-c2ccc(Cl)c(Cl)c2)nn2c1CN(C(=O)NC1CC3(CC3)C1)CC2 [Compound 207, 2-(3,4-Dichlorophenyl)-N^5-(spiro[2.3]hexan-5-yl)-6,7-dihydropyrazolo [1,5-a]pyrazine-3,5(4H)-dicarboxamide]
0.01 to 10 nM | CC(CF)(CF)NC(=O)N1CCn2nc(-c3ccc(Cl)c(Cl)c3)c(C(N)=O)c2C1 [Compound 210, 2-(3,4-Dichlorophenyl)-N^5-(1,3-difluoro-2-methylpropan-2-yl)-6,7-dihydropyrazolo [1,5-a]pyrazine-3,5(4H)-dicarboxamide]
0.01 to 10 nM | CC(CF)(CF)NC(=O)N1CCn2nc(-c3cccc(Cl)c3)c(C(N)=O)c2C1 [Compound 211, 2-(3-Chlorophenyl)-N^5-(1,3-difluoro-2-methylpropan-2-yl)-6,7-dihydropyrazolo[1,5-a]pyrazine-3,5(4H)-dicarboxamide]

IC50 | Compound
0.01 to 10 nM | NC(=O)c1c(-c2ccc(F)c(Cl)c2)nn2c1CN(C(=O)NC1(COC(F)F)CCC1)CC2 [Compound 223, 2-(3-Chloro-4-fluorophenyl)-N^5-(1-((difluoromethoxy)methyl)cyclobutyl)-6,7-dihydropyrazolo[1,5-a]pyrazine-3,5(4H)-dicarboxamide]
0.01 to 10 nM | CC(C)(NC(=O)N1CCn2nc(-c3ccc(Cl)c(Cl)c3)c(C(N)=O)c2C1)C1CC(F)(F)C1 [Compound 228, 2-(3,4-Dichlorophenyl)-N^5-(2-(3,3-difluorocyclobutyl)propan-2-yl)-6,7-dihydropyrazolo[1,5-a] pyrazine-3,5(4H)-dicarboxamide]
0.01 to 10 nM | CC1(CNC(=O)N2CCn3nc(-c4ccc(Cl)c(Cl)c4)c(C(N)=O)c3C2)CC(F)(F)C1 [Compound 231, 2-(3,4-Dichlorophenyl)-N^5-((3,3-difluoro-1-methylcyclobutyl)methyl)-6,7-dihydropyrazolo[1,5-a] pyrazine-3,5(4H)-dicarboxamide]
0.01 to 10 nM | NC(=O)c1c(-c2ccc(F)c(Cl)c2)nn2c1CN(C(=O)N[C@@H]1CC[C@@H]1C(F)F)CC2 [Compound 238, 2-(3-Chloro-4-fluorophenyl)-N^5-((1R,2S)-2-(difluoromethyl)cyclobutyl)-6,7-dihydropyrazolo[1,5-a]pyrazine-3,5(4H)-dicarboxamide]
0.01 to 10 nM | NC(=O)c1c(-c2ccc(Cl)c(Cl)c2)nn2c1CN(C(=O)N[C@@H]1CC[C@@H]1C(F)F)CC2 [Compound 240, 2-(3,4-Dichlorophenyl)-N^5-((1R,2S)-2-(difluoromethyl)cyclobutyl)-6,7-dihydropyrazolo[1,5-a] pyrazine-3,5(4H)-dicarboxamide]
0.01 to 10 nM | NC(=O)c1c(-c2cccc(Cl)c2)nn2c1CN(C(=O)N[C@@H]1CC[C@H]1COC(F)F)CC2 [Compound 242, 2-(3-Chlorophenyl)-N^5-((1R,2R)-2-((difluoromethoxy)methyl)cyclobutyl)-6,7-dihydropyrazolo[1,5-a] pyrazine-3,5(4H)-dicarboxamide]
0.01 to 10 nM | NC(=O)c1c(-c2cccc(Cl)c2)nn2c1CN(C(=O)NC1CC(C(F)F)C1)CC2 (stereo not shown) [Compound 256, 2-(3-Chlorophenyl)-N^5-(3-(difluoromethyl)cyclobutyl)-6,7-dihydropyrazolo[1,5-a]pyrazine-3,5(4H)-dicarboxamide]
0.01 to 10 nM | NC(=O)c1c(-c2cccc(Cl)c2)nn2c1CN(C(=O)NC1CC(C(F)F)C1)CC2 (stereo not shown) [Compound 257, 2-(3-Chlorophenyl)-N^5-(3-(difluoromethyl)cyclobutyl)-6,7-dihydropyrazolo[1,5-a]pyrazine-3,5(4H)-dicarboxamide]
0.01 to 10 nM | N#Cc1ccc(O[C@H]2C[C@H](NC(=O)N3CCn4nc(-c5ccc(Cl)c(Cl)c5)c(C(N)=O)c4C3)C2)cc1 [Compound 268, N^5-((1r,3r)-3-(4-Cyanophenoxy)cyclobutyl)-2-(3,4-dichlorophenyl)-6,7-dihydropyrazolo[1,5-a] pyrazine-3,5(4H)-dicarboxamide]
0.01 to 10 nM | N#Cc1ccc([C@H]2C[C@@H](NC(=O)N3CCn4nc(-c5ccc(F)c(Cl)c5)c(C(N)=O)c4C3)C2)cc1 [Compound 282, 2-(3-Chloro-4-fluorophenyl)-N^5-((1s,3s)-3-(4-cyanophenyl)cyclobutyl)-6,7-dihydropyrazolo[1,5-a]pyrazine-3,5(4H)-dicarboxamide]
0.01 to 10 nM | CCC1(NC(=O)N2CCn3nc(-c4ccc(Cl)c(Cl)c4)c(C(N)=O)c3C2)CC(F)(F)C1 [Compound 301, 2-(3,4-Dichlorophenyl)-N^5-(1-ethyl-3,3-difluorocyclobutyl)-6,7-dihydropyrazolo[1,5-a]pyrazine-3,5(4H)-dicarboxamide]
0.01 to 10 nM | CC(C)(O)[C@H](F)CNC(=O)N1CCn2nc(-c3cccc(Cl)c3)c(C(N)=O)c2C1 [Compound 337, (R)-2-(3-Chlorophenyl)-N^5-(2-fluoro-3-hydroxy-3-methylbutyl)-6,7-dihydropyrazolo[1,5-a]pyrazine-3,5(4H)-dicarboxamide]
0.01 to 10 nM | CC(C)(C)NC(=O)N1Cc2c(C(N)=O)c(-c3cccc(Cl)c3)nn2C(CO)C1 (stereo not shown) [Compound A2, N^5-(tert-Butyl)-2-(3-chlorophenyl)-7-(hydroxymethyl)-6,7-dihydropyrazolo[1,5-a] pyrazine-3,5(4H)-dicarboxamide]
0.01 to 10 nM | NC(=O)c1c(-c2cccc(Cl)c2)nn2c1CN(C(=O)NC(CF)(CF)CF)CC2 [Compound A41, 2-(3-Chlorophenyl)-N^5-(1,3-difluoro-2-(fluoromethyl)propan-2-yl)-6,7-dihydropyrazolo[1,5-a] pyrazine-3,5(4H)-dicarboxamide]
0.01 to 10 nM | N#CC1(NC(=O)N2CCn3nc(-c4cccc(Cl)c4)c(C(N)=O)c3C2)CCC1 [Compound A43, 2-(3-Chlorophenyl)-N^5-(1-cyanocyclobutyl)-6,7-dihydropyrazolo[1,5-a]pyrazine-3,5(4H)-dicarboxamide]
